Patent US9029332B2, “Cross-linked peptides and proteins, methods of making same, and uses thereof” (The Research Foundation for The State University of New York, priority 2010, dated 2015)
Each block holds one compound with its values, some of them ahead of it. Square brackets hold non-standard residues; d marks the D form. Peptide text beside a SMILES is read from it.

What was measured:
trypsin [1] = target: T1, trypsin (Sus scrofa, UniProt P00761); test: in vitro; details: pig (porcine), pH 8
Description: (§1) Proteolytic stability of the linear and stapled Noxa peptides against trypsin (Type IX-S, 13,000-20,000 unit/mg, Sigma) and chymotrypsin (Type II, 40 unit/mg, Sigma). To a solution of 400 μL of 0.25 mM peptide in NH4HCO3 buffer, pH 8.0, was added 80 μL trypsin (5 μg/mL) or chymotrypsin (25 μg/mL), and the resulting solution was incubated at 37° C. At the indicated times, 40 μL of the solution was transferred to 40 μL trifluoroacetic acid to quench the reaction. The samples were analyzed by reverse-phase HPLC using benzophenone as an injection control.

chymotrypsin [2] = target: T2, chymotrypsin (Bos taurus, UniProt P00766); test: in vitro; details: cattle (bovine), pH 8
Description: as §1

[3] = target: T3, full-length human MDM2 (GST-MDM2) (Homo sapiens, UniProt Q00987); test: ELISA, inhibition of p53-MDM2 interaction; type: binding; details: relative to comparator linear peptide
T3 construct: GST-MDM2 and GST-MDMX containing full-length human MDM2 and MDMX; made in house; host or cells: Escherichia coli
Description: FIG. 10. ELISA data of the cross-linked PDI analogs. The experiments were repeated three times and the resulting data were plotted with GraphPad Prism 5.0 to derive the average IC50 values along with standard deviations.
ELISA Assay. GST-MDM2 and GST-MDMX containing full-length human MDM2 and MDMX and His6-tagged human p53 were expressed in Escherichia coli and purified by glutathione agarose and Ni^2+-nitrilotriacetic acid beads, respectively, under non-denaturing conditions. Microtiter plates were coated with 2.5 μg/ml His6-p53 in PBS buffer for 16 hours. After washing with PBS containing 0.1% Tween-20 (PBST), the plates were blocked with PBST containing 5% nonfat dry milk (PBSTM) for 30 minutes. Peptides were dissolved in DMSO. GST-MDM2 and MDMX (5 μg/ml) were mixed with peptides in PBSMT containing 10% glycerol and 10 mM dithiolthreitol prior to their additions to the wells at the specified concentrations. The incubation was allowed to proceed for 1 hour at room temperature before the plates were washed with PBST. […] The plates were developed by incubation with TMB peroxidase substrate (KPL, Gaithersburg, Md.) and measured by absorbance at 450 nm. The data was analyzed with the Origin 6.0 software. […]

trypsin [4] = target: T1, trypsin; test: Trypsin-mediated proteolytic stability assay
Description: as §1

Water solubility = type: physicochemical
chymotrypsin [5] = target: T2, chymotrypsin; test: Chymotrypsin proteolytic stability assay
Description: as §1

Mcl-1 [6] = target: Mcl-1 (Homo sapiens, UniProt Q07820); test: ELISA of cross-linked Noxa peptides; type: binding
GST-Mcl-1 = GST-Mcl-1 (Homo sapiens, UniProt Q07820); test: Competitive fluorescence polarization assay; type: binding; details: Noxa peptides, three repeats ± SD; read-out: FP, IC50
Description: Competitive Florescence Polarization Assay. The binding affinity of the Noxa peptides toward GST-Mcl-1 was determined in a competitive fluorescence polarization assay with the fluorescein-labeled Bak or Bim. Briefly, fluorescein-labeled Bak was incubated with GST-Mcl-1 in a binding buffer (PBS, 0.005% Tween-20, pH7.4) at room temperature in a 96-well microtiter plate. […] The reading was repeated at various time points to ensure that the competition has reached equilibrium.

[7] = Circular dichroism, percent helicity; type: physicochemical; details: compared to the linear NoxaBH3 peptide, 50 μM in 20% ACN/H2O
Description: FIG. 12. […] The peptides were dissolved in 20% ACN/H2O for a final concentration of 50 μM.
Circular Dichroism Study. […] The spectra were recorded in the wavelength range of 190-250 nm and averaged over 3 scans with a resolution of 0.5 nm, a bandwidth of 1.0 nm and a response time of 4 s. The sensitivity and the speed of the spectrometer were set to 100 mdeg and 50 nm/min, respectively. All peptides were dissolved in 20% acetonitrile/H2O to reach final concentration of 50 μM.

Bcl-w = target: T4, Bcl-w (Homo sapiens, UniProt Q92843); details: background literature; read-out: IC50 against Bcl-w; cited from earlier work
T4 sequence (Q92843 1-193): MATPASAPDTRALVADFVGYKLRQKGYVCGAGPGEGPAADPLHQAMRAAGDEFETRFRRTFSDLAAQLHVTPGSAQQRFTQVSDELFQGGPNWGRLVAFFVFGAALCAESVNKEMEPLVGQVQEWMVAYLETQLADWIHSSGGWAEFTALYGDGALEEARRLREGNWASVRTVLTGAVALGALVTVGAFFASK

Mcl-1 [8] = target: Mcl-1 (Mus musculus, UniProt P97287); details: background literature; read-out: IC50 against Mcl-1; cited from earlier work
Bcl-2 = Bcl-2 (Homo sapiens, UniProt P10415); details: background literature; read-out: IC50 against Bcl-2; cited from earlier work
Bcl-xL = Bcl-xL (Homo sapiens, UniProt Q07817); details: background literature; read-out: IC50 against Bcl-xL; cited from earlier work
Bfl-1/A1 = details: background literature; read-out: IC50 against Bfl-1/A1; cited from earlier work

T1 sequence (P00761 9-231): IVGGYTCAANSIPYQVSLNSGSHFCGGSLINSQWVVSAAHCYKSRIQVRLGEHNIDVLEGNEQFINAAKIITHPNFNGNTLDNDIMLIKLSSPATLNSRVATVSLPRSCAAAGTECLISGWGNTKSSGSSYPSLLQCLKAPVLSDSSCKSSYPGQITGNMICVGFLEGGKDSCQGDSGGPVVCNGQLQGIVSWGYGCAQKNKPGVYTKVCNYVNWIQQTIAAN
Sequence of Mcl-1 (Homo sapiens, UniProt Q07820) (Q07820 whole entry, species assumed): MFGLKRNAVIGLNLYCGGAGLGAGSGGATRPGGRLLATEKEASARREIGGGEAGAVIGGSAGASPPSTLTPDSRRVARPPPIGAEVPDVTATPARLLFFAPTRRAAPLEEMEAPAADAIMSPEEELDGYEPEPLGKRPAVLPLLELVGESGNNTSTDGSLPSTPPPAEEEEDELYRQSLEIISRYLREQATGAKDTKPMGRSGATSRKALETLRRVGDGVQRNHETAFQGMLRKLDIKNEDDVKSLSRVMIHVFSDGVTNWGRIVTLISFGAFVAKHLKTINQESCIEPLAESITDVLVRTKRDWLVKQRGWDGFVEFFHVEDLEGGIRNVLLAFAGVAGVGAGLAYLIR
Sequence of GST-Mcl-1 (Q07820 whole entry): as the sequence (Q07820 whole entry, species assumed) above
T3 sequence (Q00987 whole entry): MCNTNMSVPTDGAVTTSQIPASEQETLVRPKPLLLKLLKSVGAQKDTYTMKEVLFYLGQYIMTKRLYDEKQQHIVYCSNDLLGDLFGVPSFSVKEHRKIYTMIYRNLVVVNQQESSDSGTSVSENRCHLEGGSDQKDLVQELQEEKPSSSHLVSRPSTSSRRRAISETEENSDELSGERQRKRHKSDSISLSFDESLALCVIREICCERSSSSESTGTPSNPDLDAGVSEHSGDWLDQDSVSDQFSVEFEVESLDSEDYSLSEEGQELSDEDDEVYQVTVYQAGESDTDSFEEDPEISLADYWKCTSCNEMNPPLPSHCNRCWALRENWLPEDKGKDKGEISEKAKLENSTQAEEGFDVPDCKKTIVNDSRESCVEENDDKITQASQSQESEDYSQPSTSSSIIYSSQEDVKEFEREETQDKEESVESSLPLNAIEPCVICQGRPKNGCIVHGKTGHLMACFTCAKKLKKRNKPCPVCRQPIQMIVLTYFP
Sequence of Bcl-xL (Q07817 whole entry, species assumed): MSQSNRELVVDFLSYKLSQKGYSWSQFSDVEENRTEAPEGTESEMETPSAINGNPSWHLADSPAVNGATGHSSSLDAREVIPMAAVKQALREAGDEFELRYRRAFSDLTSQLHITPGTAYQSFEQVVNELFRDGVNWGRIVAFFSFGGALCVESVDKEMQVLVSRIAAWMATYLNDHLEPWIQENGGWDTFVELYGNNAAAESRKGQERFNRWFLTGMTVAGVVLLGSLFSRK
Sequence of Bcl-2 (P10415 whole entry, species assumed): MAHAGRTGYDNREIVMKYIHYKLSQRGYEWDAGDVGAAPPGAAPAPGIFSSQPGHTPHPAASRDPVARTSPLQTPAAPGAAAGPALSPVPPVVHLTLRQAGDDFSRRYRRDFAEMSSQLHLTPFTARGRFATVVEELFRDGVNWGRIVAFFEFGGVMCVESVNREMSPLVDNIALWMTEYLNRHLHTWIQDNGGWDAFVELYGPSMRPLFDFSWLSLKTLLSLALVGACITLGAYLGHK
Sequence of Mcl-1 (Mus musculus, UniProt P97287) (P97287 152-308 limits assumed): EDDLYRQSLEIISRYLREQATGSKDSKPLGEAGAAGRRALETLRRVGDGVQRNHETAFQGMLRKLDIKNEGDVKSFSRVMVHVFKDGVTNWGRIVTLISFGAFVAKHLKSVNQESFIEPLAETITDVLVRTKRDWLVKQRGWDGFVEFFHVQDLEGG

- half-life at 0.208 mM (trypsin [1]): 1.8 min
- half-life at 0.208 mM (chymotrypsin [2]): 3.3 min
Compound: CC[C@H](C)[C@H](NC(=O)[C@H](CCCNC(=N)N)NC(=O)[C@H](CCCNC(=N)N)NC(=O)[C@H](CC(C)C)NC(=O)[C@H](CCC(N)=O)NC(=O)[C@H](C)NC(=O)[C@H](C)NC(C)=O)C(=O)NCC(=O)N[C@@H](CC(=O)O)C(=O)N[C@@H](CCCCN)C(=O)N[C@H](C(=O)N[C@@H](CC(N)=O)C(=O)N[C@@H](CC(C)C)C(=O)N[C@@H](CCCNC(=N)N)C(=O)N[C@@H](CCC(N)=O)C(=O)N[C@@H](CCCCN)C(=O)N[C@@H](CC(C)C)C(=O)N[C@@H](CC(C)C)C(=O)N[C@@H](CC(N)=O)C(N)=O)C(C)C [NoxaB^75-93-C75A]

- increase in MDM2 activity [3]: more than 3 fold
Compound: CC(=O)N[C@@H](CC(C)C)C(=O)N[C@H](C(=O)N[C@@H](Cc1ccccc1)C(=O)N[C@H](CS)C(=O)N[C@@H](Cc1c[nH]cn1)C(=O)N[C@@H](Cc1ccc(O)cc1)C(=O)N[C@@H](Cc1c[nH]c2ccccc12)C(=O)N[C@@H](C)C(=O)N[C@@H](CCC(N)=O)C(=O)N[C@@H](CC(C)C)C(=O)N[C@@H](CS)C(=O)N[C@@H](CO)C(N)=O)[C@@H](C)O [Peptide 3] (Ac-LTF[dC]HYWAQLCS-NH2; C-terminus assumed)

- times more stable against trypsin than parent linear peptide (trypsin [4]): > 6 times
- half-life at 0.208 mM (trypsin [4]; pig (porcine), trypsin (Type IX-S, Sigma) in NH4HCO3 buffer, pH 8): 11.5 min
- water solubility (Water solubility): better water solubility
- times more stable against chymotrypsin than parent linear peptide (chymotrypsin [5]): > 16 times
- half-life at 0.208 mM (chymotrypsin [5]; cattle (bovine), chymotrypsin (Type II, Sigma) in NH4HCO3 buffer, pH 8): 54 min
- IC50 (Mcl-1 [6]): 140 nM
- IC50 (GST-Mcl-1): 140 ± 43 nM
- enhancement in percent helicity [7]: roughly 2 fold
Compound: CC[C@H](C)[C@@H]1NC(=O)[C@H](CCCNC(=N)N)NC(=O)[C@H](CCCNC(=N)N)NC(=O)[C@H](CC(C)C)NC(=O)[C@H](NC(=O)[C@H](C)NC(=O)[C@H](C)NC(C)=O)CSCc2ccc(cn2)-c2ccc(nc2)CSC[C@@H](C(=O)N[C@H](C(=O)N[C@@H](CC(N)=O)C(=O)N[C@@H](CC(C)C)C(=O)N[C@@H](CCCNC(=N)N)C(=O)N[C@@H](CCC(N)=O)C(=O)N[C@@H](CCCCN)C(=O)N[C@@H](CC(C)C)C(=O)N[C@@H](CC(C)C)C(=O)N[C@@H](CC(N)=O)C(N)=O)C(C)C)NC(=O)[C@H](CC(=O)O)NC(=O)CNC1=O [Peptide 6b]

Compound: NoxaBH3-(18-43): human Noxa BH3 peptide, residues 18-43 (PAELEVECATQLRRFGDKLNFRQKLL; UniProt Q13794 18-43, looked up, fragment)
- IC50 (Bcl-w): > 100000 nM
- IC50 (Mcl-1 [8]): 24 nM
- IC50 (Bcl-2): > 100000 nM
- IC50 (Bcl-xL): > 100000 nM
- IC50 (Bfl-1/A1): 180 nM
